# Reference: patent US20100061928A1, “LABELLED ANALOGUES OF HALOBENZAMIDES AS RADIOPHARMACEUTICALS” (Institut National De La Sante et De La Recherche Medicale …, priority 2006, published 2010)
# Structures can show the parent of a compound that is named as a salt.
# Experiments:
# [1] = tested on: grafted B16 F0 murine melanoma tumour; experiment: Biodistribution of the ^125I-labelled molecules in the melanoma-bearing mouse (autoradiography of whole-body sections); details: for Biodistribution, Mean, B 16: B 16 tumour; for Concentration of radioactivity, B 16 (tumour), Mean / Concentration of radioactivity, Ic (intestinal contents), Mean / Concentration of radioactivity, Sc (stomach contents), Mean / Concentration of radioactivity, blood (measured in the heart cavity), Mean / Concentration of radioactivity, brain, Mean / Concentration of radioactivity, kidney, Mean / Concentration of radioactivity, liver, Mean / Concentration of radioactivity, lungs, Mean / Concentration of radioactivity, muscle (skeletal muscle), Mean / Concentration of radioactivity, pancreas, Mean / Concentration of radioactivity, spleen, Mean / Concentration of radioactivity, uvea (pigmented tissues of the eye), Mean: ^125I-labelled compound
# tumour = experiment: Dosimetry with regard to the tumour (MIRD programme, extrapolated to ^131I); details: for Effective period: extrapolated to 131I labelling; for Biological period: from biodistribution data
# [2] = Elimination of the molecules: cumulative urinary and faecal excretion 0-72 hours; format: in vivo, mouse; details: for Faecal elimination 0-72 hours (Faeces) / Urinary and faecal elimination 0-72 hours (Total) / Urinary elimination 0-72 hours (Urine): cumulative excretion 0-72 hours; for Faecal elimination 0-72 hours (Faeces) / Urinary elimination 0-72 hours (Urine): mice in metabolic cages; for Urinary and faecal elimination 0-72 hours (Total): urine + faeces; for elimination route (in words): urinary versus faecal, 0-72 hours
smiles,measurement,setting,value
"CCN(CC)CCNC(=O)c1c[nH]c2ccc(I)cc2c1=O [compound 35, N-(2-diethylaminoethyl)-1,4-dihydro-6-iodo-4-oxoquinoline-3-carboxamide dihydrochloride]","Biodistribution, Mean, B 16",[1]; 1 H,4.69
same,"Biodistribution, Mean, B 16",[1]; 3 H,4.05
same,"Biodistribution, Mean, B 16",[1]; 6 H,5.81
same,"Biodistribution, Mean, B 16",[1]; 24 H,2.74
same,"Biodistribution, Mean, B 16",[1]; 72 H,2.35
same,"Biodistribution, Mean, Ic",[1]; 1 H,52.94
same,"Biodistribution, Mean, Ic",[1]; 3 H,90.12
same,"Biodistribution, Mean, Ic",[1]; 6 H,61.06
same,"Biodistribution, Mean, Ic",[1]; 24 H,1.62
same,"Biodistribution, Mean, Ic",[1]; 72 H,0.70
same,"Biodistribution, Mean, Sc",[1]; 1 H,12.74
same,"Biodistribution, Mean, Sc",[1]; 3 H,9.93
same,"Biodistribution, Mean, Sc",[1]; 6 H,22.27
same,"Biodistribution, Mean, Sc",[1]; 24 H,0.13
same,"Biodistribution, Mean, blood",[1]; 1 H,0.42
same,"Biodistribution, Mean, blood",[1]; 3 H,0.23
same,"Biodistribution, Mean, blood",[1]; 6 H,0.17
same,"Biodistribution, Mean, blood",[1]; 24 H,0.22
same,"Biodistribution, Mean, brain",[1]; 1 H,0.07
same,"Biodistribution, Mean, brain",[1]; 6 H,0.08
same,"Biodistribution, Mean, brain",[1]; 24 H,0.04
same,"Biodistribution, Mean, brain",[1]; 72 H,0.10
same,"Biodistribution, Mean, kidney",[1]; 1 H,2.80
same,"Biodistribution, Mean, kidney",[1]; 3 H,0.80
same,"Biodistribution, Mean, kidney",[1]; 6 H,0.20
same,"Biodistribution, Mean, kidney",[1]; 24 H,0.03
same,"Biodistribution, Mean, liver",[1]; 1 H,5.16
same,"Biodistribution, Mean, liver",[1]; 3 H,1.84
same,"Biodistribution, Mean, liver",[1]; 6 H,0.32
same,"Biodistribution, Mean, liver",[1]; 24 H,0.07
same,"Biodistribution, Mean, lungs",[1]; 1 H,2.06
same,"Biodistribution, Mean, lungs",[1]; 3 H,0.88
same,"Biodistribution, Mean, lungs",[1]; 6 H,0.15
same,"Biodistribution, Mean, lungs",[1]; 24 H,0.04
same,"Biodistribution, Mean, muscle",[1]; 1 H,0.92
same,"Biodistribution, Mean, muscle",[1]; 3 H,0.13
same,"Biodistribution, Mean, muscle",[1]; 6 H,0.01
same,"Biodistribution, Mean, pancreas",[1]; 1 H,5.74
same,"Biodistribution, Mean, pancreas",[1]; 3 H,0.96
same,"Biodistribution, Mean, pancreas",[1]; 6 H,1.08
same,"Biodistribution, Mean, spleen",[1]; 1 H,1.24
same,"Biodistribution, Mean, spleen",[1]; 3 H,0.28
same,"Biodistribution, Mean, spleen",[1]; 6 H,0.26
same,"Biodistribution, Mean, spleen",[1]; 24 H,0.15
same,"Biodistribution, Mean, thyroid",[1]; 3 H,4.33
same,"Biodistribution, Mean, thyroid",[1]; 6 H,8.55
same,"Biodistribution, Mean, thyroid",[1]; 24 H,5.09
same,"Biodistribution, Mean, thyroid",[1]; 72 H,9.83
same,"Biodistribution, Mean, uvea",[1]; 1 H,5.12
same,"Biodistribution, Mean, uvea",[1]; 3 H,5.66
same,"Biodistribution, Mean, uvea",[1]; 6 H,5.18
same,"Biodistribution, Mean, uvea",[1]; 24 H,3.5
same,"Biodistribution, Mean, uvea",[1]; 72 H,6.79
same,Effective period,tumour,49.4 h
same,Biological period,tumour,66.3 hours
same,Faecal elimination 0-72 hours (Faeces),[2],69.2%
same,Urinary and faecal elimination 0-72 hours (Total),[2],93.0%
same,Urinary elimination 0-72 hours (Urine),[2],23.8%
same,elimination route (in words),[2],faecal route predominates
"CCN(CC)CCNC(=O)c1ccc2cc(I)ccc2n1.Cl.Cl [compound 31, N-(2-diethylaminoethyl)-6-iodoquinoline-2-carboxamide dihydrochloride]","Concentration of radioactivity, B 16 (tumour), Mean",[1]; 1 H after i.v. administration,19.63 % ID/g
same,"Concentration of radioactivity, Ic (intestinal contents), Mean",[1]; 1 H after i.v. administration,15.78 % ID/g
same,"Concentration of radioactivity, Sc (stomach contents), Mean",[1]; 1 H after i.v. administration,48.03 % ID/g
same,"Concentration of radioactivity, blood (measured in the heart cavity), Mean",[1]; 1 H after i.v. administration,7.01 % ID/g
same,"Concentration of radioactivity, brain, Mean",[1]; 1 H after i.v. administration,1.96 % ID/g
same,"Concentration of radioactivity, kidney, Mean",[1]; 1 H after i.v. administration,11.82 % ID/g
same,"Concentration of radioactivity, liver, Mean",[1]; 1 H after i.v. administration,10.92 % ID/g
same,"Concentration of radioactivity, lungs, Mean",[1]; 1 H after i.v. administration,9.41 % ID/g
same,"Concentration of radioactivity, muscle (skeletal muscle), Mean",[1]; 1 H after i.v. administration,1.79 % ID/g
same,"Concentration of radioactivity, pancreas, Mean",[1]; 1 H after i.v. administration,9.80 % ID/g
same,"Concentration of radioactivity, spleen, Mean",[1]; 1 H after i.v. administration,11.56 % ID/g
same,"Concentration of radioactivity, uvea (pigmented tissues of the eye), Mean",[1]; 1 H after i.v. administration,32.71 % ID/g
same,"Concentration of radioactivity, B 16 (tumour), Mean",[1]; 3 H after i.v. administration,25.35 % ID/g
same,"Concentration of radioactivity, Ic (intestinal contents), Mean",[1]; 3 H after i.v. administration,20.65 % ID/g
same,"Concentration of radioactivity, Sc (stomach contents), Mean",[1]; 3 H after i.v. administration,34.72 % ID/g
same,"Concentration of radioactivity, blood (measured in the heart cavity), Mean",[1]; 3 H after i.v. administration,5.57 % ID/g
same,"Concentration of radioactivity, brain, Mean",[1]; 3 H after i.v. administration,0.83 % ID/g
same,"Concentration of radioactivity, kidney, Mean",[1]; 3 H after i.v. administration,12.59 % ID/g
same,"Concentration of radioactivity, liver, Mean",[1]; 3 H after i.v. administration,8.89 % ID/g
same,"Concentration of radioactivity, lungs, Mean",[1]; 3 H after i.v. administration,5.58 % ID/g
same,"Concentration of radioactivity, muscle (skeletal muscle), Mean",[1]; 3 H after i.v. administration,1.14 % ID/g
same,"Concentration of radioactivity, pancreas, Mean",[1]; 3 H after i.v. administration,6.17 % ID/g
same,"Concentration of radioactivity, spleen, Mean",[1]; 3 H after i.v. administration,10.63 % ID/g
same,"Concentration of radioactivity, uvea (pigmented tissues of the eye), Mean",[1]; 3 H after i.v. administration,33.10 % ID/g
same,"Concentration of radioactivity, B 16 (tumour), Mean",[1]; 6 H after i.v. administration,17.21 % ID/g
same,"Concentration of radioactivity, Ic (intestinal contents), Mean",[1]; 6 H after i.v. administration,23.36 % ID/g
same,"Concentration of radioactivity, Sc (stomach contents), Mean",[1]; 6 H after i.v. administration,65.36 % ID/g
same,"Concentration of radioactivity, blood (measured in the heart cavity), Mean",[1]; 6 H after i.v. administration,5.91 % ID/g
same,"Concentration of radioactivity, brain, Mean",[1]; 6 H after i.v. administration,0.37 % ID/g
same,"Concentration of radioactivity, kidney, Mean",[1]; 6 H after i.v. administration,7.60 % ID/g
same,"Concentration of radioactivity, liver, Mean",[1]; 6 H after i.v. administration,7.11 % ID/g
same,"Concentration of radioactivity, lungs, Mean",[1]; 6 H after i.v. administration,5.32 % ID/g
same,"Concentration of radioactivity, muscle (skeletal muscle), Mean",[1]; 6 H after i.v. administration,0.95 % ID/g
same,"Concentration of radioactivity, spleen, Mean",[1]; 6 H after i.v. administration,7.60 % ID/g
same,"Concentration of radioactivity, uvea (pigmented tissues of the eye), Mean",[1]; 6 H after i.v. administration,36.62 % ID/g
same,"Concentration of radioactivity, B 16 (tumour), Mean",[1]; 24 H after i.v. administration,12.13 % ID/g
same,"Concentration of radioactivity, Ic (intestinal contents), Mean",[1]; 24 H after i.v. administration,1.45 % ID/g
same,"Concentration of radioactivity, Sc (stomach contents), Mean",[1]; 24 H after i.v. administration,2.33 % ID/g
same,"Concentration of radioactivity, kidney, Mean",[1]; 24 H after i.v. administration,0.34 % ID/g
same,"Concentration of radioactivity, liver, Mean",[1]; 24 H after i.v. administration,2.25 % ID/g
same,"Concentration of radioactivity, lungs, Mean",[1]; 24 H after i.v. administration,0.53 % ID/g
same,"Concentration of radioactivity, spleen, Mean",[1]; 24 H after i.v. administration,2.66 % ID/g
same,"Concentration of radioactivity, uvea (pigmented tissues of the eye), Mean",[1]; 24 H after i.v. administration,22.27 % ID/g
same,"Concentration of radioactivity, B 16 (tumour), Mean",[1]; 72 H after i.v. administration,5.93 % ID/g
same,"Concentration of radioactivity, liver, Mean",[1]; 72 H after i.v. administration,1.23 % ID/g
same,"Concentration of radioactivity, spleen, Mean",[1]; 72 H after i.v. administration,1.85 % ID/g
same,"Concentration of radioactivity, uvea (pigmented tissues of the eye), Mean",[1]; 72 H after i.v. administration,18.30 % ID/g
same,"tumour concentration, times higher than with BZA",[1]; at 72 hours (FIG. 1B),8 times
same,"tumour concentration, % of the injected dose per gram of tumour",[1]; from the first hour,19.6 % ID/g
same,Effective period,tumour,31.8 h
same,Biological period,tumour,38.0 hours
same,Faecal elimination 0-72 hours (Faeces),[2],11.4%
same,Urinary and faecal elimination 0-72 hours (Total),[2],91.2%
same,Urinary elimination 0-72 hours (Urine),[2],80.7%
same,elimination route (in words),[2],predominantly in the urine
